Read-outs that look alike come from different tables or passages of the source.
Columns and labels:
[1] = system: ovarian (A2780) cancer cell line; assay: Sulforhodamine B (SRB) cell viability assay, A2780; assay type: cell-based; details: read-out: IC50 A2780
Description: (§1) The cancer cell lines used for this study were ovarian cancer (A2780), cervical cancer (HeLa) and colorectal cancer (HT29) as well as normal cardiomyocyte (H9C2) and liver (WRL-68) cell lines. All cell lines were purchased from American Type Culture Collections except A2780, which were purchased from the European Collection of Authenticated Cell Cultures. These cells were subcultured in Dulbecco’s Modified Eagle’s medium (Sigma-Aldrich, St. Louis, MO, USA) and supplemented with 10% fetal bovine serum (Sigma, USA), 1% penicillin–streptomycin (Sigma, USA), 1% amphotericin B (Sigma, USA) and 1% gentamicin (Sigma, USA). The cells were seeded in each well of 96 well plates and incubated in a humidified incubator at 37 °C and 5% carbon dioxide in air for 24 h. Each cell line was then treated with eurycomanone and eurycomalactone at five different concentrations (0.08, 0.4, 2, 10 and 50 µM) in triplicate. Cisplatin and methotrexate (Sigma, USA), known chemo-drugs, were also treated on these cell lines at five different concentrations (0.08, 0.4, 2, 10, 50 µM for cisplatin, 0.0008, 0.004, 0.02, 0.1, 0.5 µM for methotrexate) for the comparative studies. The treated cells were then incubated in the same incubator with the mentioned conditions for 72 h. The experiment was repeated at least three times.
(§2) Briefly, 50 μL of ice cold tricholoroacetic acid (TCA) was added to each well and allowed to stand for 30 min at room temperature, followed by rinsing each well with tap water. Then, 100 μL of 0.4% SRB was added to each well to stain living cells for 30 min followed by a rinse with 1% acetic acid. Finally, 100 μL of Tris buffer was added to each well and the optical density (OD) of the treated and nontreated cells were read at 492 nm with a Magellan V.4 microtiter plate reader (Tecan, Salzburg, Austria). The percentage of cell viability was calculated based on (OD492nm of the treated cells/OD492nm of the nontreated cells) × 100. The IC50 values were determined from the dose–response curve of percentage of cell viability versus the concentration of the compounds (μM). Cells viability assay for each treatment was performed in triplicate in at least three independent experiments, and the IC50 values are given as the mean ± SEM.

[2] = system: colorectal (HT29) cancer cell line; assay: Sulforhodamine B (SRB) cell viability assay, HT-29; assay type: cell-based; details: read-out: IC50 HT-29
Description: as §1
as §2, with “Sulforhodamine B (SRB) assay had been performed after the treated cells were incubated for 72 h. Briefly,” for “Briefly,”

[3] = system: cervical (HeLa) cancer cell line; assay: Sulforhodamine B (SRB) cell viability assay, HeLa; assay type: cell-based; details: 72 h, read-out: IC50 HeLa
Description: as §1
as §2, with “Sulforhodamine B (SRB) assay had been performed after the treated cells were incubated for 72 h. Briefly,” for “Briefly,”

[4] = system: liver (WRL-68) normal cell line; assay: Sulforhodamine B (SRB) cell viability assay, WRL-68; assay type: cell-based; details: read-out: IC50 WRL-68
Description: as §1
as §2, with “Sulforhodamine B (SRB) assay had been performed after the treated cells were incubated for 72 h. Briefly,” for “Briefly,”

[5] = system: cardiomyocyte (H9C2) normal cell line; assay: Sulforhodamine B (SRB) cell viability assay, H9C2; assay type: cell-based; details: read-out: IC50 H9C2
Description: as §1
as §2, with “Sulforhodamine B (SRB) assay had been performed after the treated cells were incubated for 72 h. Briefly,” for “Briefly,”

[6] = system: ovarian (A2780), cervical (HeLa) and colorectal (HT29) cancer cells; assay: SRB assay, range over the three cancer cell lines; assay type: cell-based; details: 72 h, read-out: range of IC50 values in cancer cell lines
Description: as §1
as §2, with “Cells viability assay for each treatment was performed in triplicate in at least three independent experiments, and the IC50 values are given as the mean ± SEM.” left out

[7] = system: A2780 cells; assay: Apoptotic Hoechst 33342 assay, A2780; assay type: cell-based
Protocol: (§3) A2780, HT-29 and HeLa cancer cell lines were chosen for evaluating the apoptotic effects of eurycomanone and eurycomalactone. The morphological changes of cells undergoing apoptosis were visualised under a fluoresecence microscope after performing the Hoechst 33342 assay. Briefly, 10 × 10^4 cells were seeded for 500 µL/well of four Labtek® Chamber Slides (Thermo Fisher Scientific, Waltham, MA, USA) and incubated in 5% carbon dioxide in air for 24 h for the cells’ attachment. The cells were treated with concentrations of IC50/5, IC50 and IC50 × 5 values of eurycomanone and eurycomalactone in different wells and further incubated for 6, 24 and 48 h, respectively. Nontreated cells were also included in the experimental design, which acted as a negative control in this study. Following this, the media from each well were discarded and cells were fixed with 4% (w/v) paraformaldehyde for 30 min. The cells were then washed with cold phosphate buffer solution (PBS) prior to staining using Hoechst 33342, according to the method of [26]. Quantitative assessment of apoptotic cells were determined by counting apoptotic nuclei from five randomly chosen areas corroborating visual impression based on the morphology shown in Figure 3 and Figure 4. The apoptotic index (number of apoptotic nuclei per total nuclei × 100) was expressed as a percentage of the mean ± S.E.M and analysed using ANOVA followed by Tukey’s multiple comparison test.

[8] = system: HeLa cells; assay: Apoptotic Hoechst 33342 assay, HeLa; assay type: cell-based
Protocol: as §3

[9] = system: HT-29 cells; assay: Apoptotic Hoechst 33342 assay, HT-29; assay type: cell-based
Protocol: as §3

[10] = parameters: method as in PMID 16206032; details: in vivo, given orally; cited from earlier work
[11] = system: Cytochrome P450 (CYP) enzymes; parameters: method as in PMID 23881640; details: in vitro assay; cited from earlier work
[12] = SRB, 72 h, normal cell line, mean ± SEM (n = 9)

Compound | IC50 ([1]; Homo sapiens, A2780, 72 h) | IC50 ([2]; Homo sapiens, HT-29, 72 h) | IC50 [6] | IC50 ([3]; Homo sapiens, HeLa) | IC50 ([4]; Homo sapiens, WRL68, 72 h) | Apoptotic index ([7]; A2780, IC50, 6 h) | Apoptotic index ([7]; A2780, IC50, 24 h) | Apoptotic index ([7]; A2780, IC50, 48 h) | Apoptotic index ([7]; A2780, IC50/5, 6 h) | Apoptotic index ([7]; A2780, IC50/5, 24 h) | Apoptotic index ([7]; A2780, IC50/5, 48 h) | Apoptotic index ([7]; A2780, IC50 × 5, 6 h) | Apoptotic index ([7]; A2780, IC50 × 5, 24 h) | Apoptotic index ([7]; A2780, IC50 × 5, 48 h) | IC50 ([5]; Rattus norvegicus, H9c2, 72 h) | Apoptotic index ([8]; IC50, 6 h) | Apoptotic index ([8]; IC50, 24 h) | Apoptotic index ([8]; IC50, 48 h) | Apoptotic index ([8]; IC50/5, 6 h) | Apoptotic index ([8]; IC50/5, 24 h) | further results
N.N.[Cl][Pt][Cl] [Cisplatin, reference compound] |  |  |  |  |  |  |  |  |  |  |  |  |  |  |  |  |  |  |  |  | IC50 ([1]; SRB, 72 h, mean ± SEM (n = 9)): 1770 ± 18 nM; IC50 ([2]; SRB, 72 h, mean ± SEM (n = 9)): 1380 ± 37 nM; IC50 ([3]; SRB, mean ± SEM (n = 9)): 1540 ± 120 nM; IC50 [4, 12]: 1130 ± 98 nM; IC50 [5, 12]: 14.1 ± 1.14 µM
CC1=CC(=O)[C@@H](O)[C@@]2(C)[C@H]1CC(=O)[C@@]1(C)[C@H]3C(=O)O[C@H]([C@@H]3C)[C@H](O)[C@@H]12 [Eurycomalactone] | 2460 ± 81 nM | 2210 ± 49 nM | 1600 to 2460 nM | 1600 ± 120 nM | 2710 ± 42 nM | 4.26 ± 0.64 ^b/x % | 6.29 ± 0.21 ^ab/y % | 7.93 ± 2.28 ^b/xz % | 3.84 ± 0.10 ^a/x % | 4.12 ± 0.16 ^a/y % | 5.16 ± 0.065 ^a/xz,yz % | 15.81 ± 0.38 ^ac,bc/x % | Cells died and completely detached ^ac,bc/xy | Cells died and completely detached ^ac,bc/xz | 7 ± 0.43 µM | 17.67 ± 0.77 ^ab/x % | 32.00 ± 1.57 ^ab/xy % | 36.71 ± 1.19 ^ab/xz,yz % | 5.45 ± 0.23 ^a/x % | 8.94 ± 0.21 ^a/xy % | Apoptotic index ([8]; IC50/5, 48 h): 14.78 ± 0.12 ^a/xz,yz %; Apoptotic index ([8]; IC50 × 5, 6 h): 31.87 ± 2.19 ^ac,bc/x %; Apoptotic index ([8]; IC50 × 5, 24 h): 62.20 ± 1.35 ^ac,bc/xy %; Apoptotic index ([8]; IC50 × 5, 48 h): 100.00 ± 0.00 ^ac,bc/xz,yz %; Apoptotic index ([9]; HT-29, IC50, 6 h): 4.51 ± 0.23 ^b/x %; Apoptotic index ([9]; HT-29, IC50, 24 h): 12.41 ± 0.77 ^ab/xy %; Apoptotic index ([9]; HT-29, IC50, 48 h): 14.28 ± 0.84 ^ab/xz,yz %; Apoptotic index ([9]; HT-29, IC50/5, 6 h): 3.79 ± 0.45 ^a/x %; Apoptotic index ([9]; HT-29, IC50/5, 24 h): 7.71 ± 0.51 ^a/xy %; Apoptotic index ([9]; HT-29, IC50/5, 48 h): 8.86 ± 0.68 ^a/xz %; Apoptotic index ([9]; HT-29, IC50 × 5, 6 h): 6.52 ± 1.22 ^ac,bc/x %; Apoptotic index ([9]; HT-29, IC50 × 5, 24 h): 20.21 ± 1.52 ^ac,bc/xy %; Apoptotic index ([9]; HT-29, IC50 × 5, 48 h): 100.00 ± 0.00 ^ac,bc/xz,yz %
C=C1[C@@H](O)[C@]2(O)OC[C@]34[C@H]2[C@@]2(C)[C@H](O)C(=O)C=C(C)[C@@H]2C[C@H]3OC(=O)[C@H](O)[C@@]14O [Eurycomanone] | 1370 ± 130 nM | 1220 ± 110 nM | 1220 to 4580 nM | 4580 ± 90 nM | 1340 ± 46 nM | 8.48 ± 0.60 ^ab/x % | 13.13 ± 1.30 ^ab/y % | 31.74 ± 3.19 ^ab/xz,yz % | 4.30 ± 0.34 ^a/x % | 7.11 ± 1.60 ^a/xy % | 14.72 ± 0.59 ^a/xz,yz % | 13.01 ± 0.29 ^ac,bc/x % | 28.90 ± 0.93 ^ac,bc/xy % | 100.00 ± 0.00 ^ac,bc/xz,yz % | > 50 µM | 19.98 ± 0.76 ^ab/x % | 52.57 ± 1.40 ^ab/y % | 61.16 ± 0.63 ^ab/xz,yz % | 8.42 ± 0.20 ^a/x % | 13.76 ± 1.26 ^a/xy % | oral bioavailability [10]: poorly bioavailable; inhibition of cytochromes in vitro [11]: no inhibition; Apoptotic index ([8]; IC50/5, 48 h): 16.79 ± 0.92 ^a/xz,yz %; Apoptotic index ([8]; IC50 × 5, 6 h): 41.37 ± 0.24 ^ac,bc/x %; Apoptotic index ([8]; IC50 × 5, 24 h): 94.56 ± 1.16 ^ac,bc/xy %; Apoptotic index ([8]; IC50 × 5, 48 h): 100.00 ± 0.00 ^ac,bc/xz,yz %; Apoptotic index ([9]; HT-29, IC50, 6 h): 5.24 ± 0.17 ^b/x %; Apoptotic index ([9]; HT-29, IC50, 24 h): 6.30 ± 1.01 ^b/y %; Apoptotic index ([9]; HT-29, IC50, 48 h): 14.80 ± 0.56 ^ab/xz,yz %; Apoptotic index ([9]; HT-29, IC50/5, 6 h): 4.08 ± 0.81 ^a/x %; Apoptotic index ([9]; HT-29, IC50/5, 24 h): 4.18 ± 0.21 ^a/y %; Apoptotic index ([9]; HT-29, IC50/5, 48 h): 4.24 ± 0.20 ^a/z %; Apoptotic index ([9]; HT-29, IC50 × 5, 6 h): 5.97 ± 0.35 ^ac/x %; Apoptotic index ([9]; HT-29, IC50 × 5, 24 h): 10.95 ± 0.71 ^ac,bc/y %; Apoptotic index ([9]; HT-29, IC50 × 5, 48 h): 26.20 ± 1.48 ^ac,bc/xz,yz %
CN(Cc1cnc2nc(N)nc(N)c2n1)c1ccc(C(=O)N[C@@H](CCC(=O)O)C(=O)O)cc1 [Methotrexate, reference compound] |  |  |  |  |  |  |  |  |  |  |  |  |  |  |  |  |  |  |  |  | IC50 ([1]; Homo sapiens, A2780, SRB, 72 h, mean ± SEM (n = 9)): 16 ± 0.5 nM; IC50 ([2]; Homo sapiens, HT-29, SRB, 72 h, mean ± SEM (n = 9)): 59 ± 1 nM; IC50 ([6]; range over A2780, HeLa, HT29, SRB): 16 to 94 nM; IC50 ([3]; Homo sapiens, HeLa, SRB, mean ± SEM (n = 9)): 94 ± 4.3 nM; IC50 ([4]; Homo sapiens, WRL68, SRB, 72 h, normal cell line, mean ± SEM (n = 9)): 15 ± 0.41 nM; IC50 ([5]; Rattus norvegicus, H9c2, SRB, 72 h, normal cell line, mean ± SEM (n = 9)): > 50 µM

From article PMC10421158, “In Vitro and In Silico Analysis of the Anticancer Effects of Eurycomanone and Eurycomalactone from Eurycoma longifolia” (Plants, 2023)
